The target of test [1] is T1, KRAS G12D (Homo sapiens, UniProt P01116, G12D).
In test [2] the target is T1, KRAS G12D. Briefly: cell-based. As to conditions: AGS.
The test system of test [3] is SW620. Briefly: Cell proliferation experiment (CellTiter-Glo). Particulars: Homo sapiens, SW-620, 96 h, read-out: IC50(nM) SW620. It counts as cell-based.
Test [4] relates to AGS. Briefly: Cell proliferation experiment (CellTiter-Glo). As to conditions: Homo sapiens, AGS, 96 h, read-out: IC50(nM) AGS. It counts as cell-based.

Structures are written as SMILES.

T1 sequence (P01116 1-188 isoform P01116-2 G12D): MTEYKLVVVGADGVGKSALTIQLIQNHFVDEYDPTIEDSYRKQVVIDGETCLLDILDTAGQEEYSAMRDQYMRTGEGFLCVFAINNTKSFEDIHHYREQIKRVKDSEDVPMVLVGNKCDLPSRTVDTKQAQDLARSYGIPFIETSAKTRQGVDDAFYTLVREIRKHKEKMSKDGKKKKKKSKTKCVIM

`C=C1CN2[C@H](COC(=O)N3CCC4(CC3)CC(CNC(=O)C[C@H](NC(=O)[C@@H]3C[C@@H](O)CN3C(=O)C(c3cc(C)no3)C(C)C)c3ccc(-c5scnc5C)cc3)C4)CC[C@@]2(COc2nc(N3CCC[C@@](C)(O)C3)c3cnc(-c4cc(O)cc5ccc(F)c(CC)c45)c(F)c3n2)C1` (single isomer, unassigned) [Compound 139] registered a DC50 in test [1] of 0.031 µM. For the same compound, the Dmax in test [2] came out at 95%. The IC50 in test [3] was 2040 nM; in test [4], 84 nM.

As to `CCc1c(F)ccc2cc(O)cc(-c3ncc4c(N5CCC[C@@](C)(O)C5)nc(OCCN5CCC(COc6ccc(-c7cn([C@H](C(=O)N8C[C@H](O)C[C@H]8C(=O)N[C@@H](C)c8ccc(-c9scnc9C)cc8)C(C)C)nn7)cc6)CC5)nc4c3F)c12` [Compound 67], the DC50 in test [1] came to 0.022 µM. This compound also had a Dmax in test [2] of 78%. In addition, the IC50 in test [3] is 1720 nM; in test [4] it was 40 nM.

Compound `CCc1c(F)ccc2cc(O)cc(-c3ncc4c(N5CCC[C@@](C)(O)C5)nc(OCCN5CCC(CCOc6cc([C@H](C(=O)N7C[C@H](O)C[C@H]7C(=O)N[C@@H](C)c7ccc(-c8scnc8C)cc7)C(C)C)on6)CC5)nc4c3F)c12` [Compound 79] gave a DC50 in test [1] of 0.044 µM. This compound also registered a Dmax in test [2] of 95%. Besides, the IC50 in test [4] stood at 44 nM.

As for `CCc1c(F)ccc2cc(O)cc(-c3ncc4c(N5CCC[C@@](C)(O)C5)nc(OCCN5CCC(COc6cc([C@H](C(=O)N7C[C@H](O)C[C@H]7C(=O)N[C@@H](C)c7ccc(-c8scnc8C)cc7)C(C)C)on6)CC5)nc4c3F)c12` [Compound 80], in test [1], the DC50 was 0.04 µM. The same compound displayed a Dmax in test [2] of 95%. The IC50 in test [4] was determined as 63 nM.

As to `CCc1c(F)ccc2cc(O)cc(-c3ncc4c(N5CCC[C@@](C)(O)C5)nc(OCC5(CN6CCC(CN7CCN(c8cc([C@H](C(=O)N9C[C@H](O)C[C@H]9C(=O)N[C@@H](C)c9ccc(-c%10scnc%10C)cc9)C(C)C)on8)CC7)CC6)CC5)nc4c3F)c12` [Compound 104], the DC50 in test [1] worked out at 0.027 µM. The same compound had a Dmax in test [2] of 95%. The IC50 in test [4] is 39 nM.

Regarding `CCc1c(F)ccc2cc(O)cc(-c3ncc4c(N5CCC[C@@](C)(O)C5)nc(OCC5(CN6CCN(c7cc([C@H](C(=O)N8C[C@H](O)C[C@H]8C(=O)N[C@@H](C)c8ccc(-c9scnc9C)cc8)C(C)C)on7)CC6)CC5)nc4c3F)c12` [Compound 112], in test [1], the DC50 is 0.005 µM. In test [2], the Dmax is 95%. For the same compound, in test [4], the IC50 was 57 nM.

In turn, `CCc1c(F)ccc2cc(O)cc(-c3ncc4c(N5CCC[C@@](C)(O)C5)nc(OCC5(CN6CC(N7CCN(c8cc([C@H](C(=O)N9C[C@H](O)C[C@H]9C(=O)N[C@@H](C)c9ccc(-c%10scnc%10C)cc9)C(C)C)on8)CC7)C6)CC5)nc4c3F)c12` [Compound 116] showed a DC50 in test [1] of 0.03 µM. The compound also registered a Dmax in test [2] of 95%. Besides, the IC50 in test [4] is 27 nM.

Regarding `C=C1CN2[C@H](COc3cc(-c4cn([C@H](C(=O)N5C[C@H](O)C[C@H]5C(=O)N[C@@H](C)c5ccc(-c6scnc6C)cc5)C(C)C)nn4)ccn3)CC[C@@]2(COc2nc(N3CCC[C@@](C)(O)C3)c3cnc(-c4cc(O)cc5ccc(F)c(CC)c45)c(F)c3n2)C1` [Compound 121], the DC50 in test [1] stood at 0.03 µM. In test [2], this compound returned a Dmax of 95%. Also, the IC50 in test [4] came to 40 nM.

With `CCc1c(F)ccc2cc(O)cc(-c3ncc4c(N5CCC[C@@](C)(O)C5)nc(OCC5(CN6CCC(c7cn([C@H](C(=O)N8C[C@H](O)C[C@H]8C(=O)N[C@@H](C)c8ccc(-c9scnc9C)cc8)C(C)C)nn7)CC6)CC5)nc4c3F)c12` [Compound 131, (2S,4R)-1-((S)-2-(4-(1-((((7-(8-ethyl-7-fluoro-3-hydroxynaphthalen-1-yl)-8-fluoro-4-((R)-3-hydroxy-3-methylpiperidin-1-yl)pyrido[4,3-d]pyrimidin-2-yl)oxy)methyl)cyclopropyl)methyl)piperidin-4-yl)-1H-1,2,3-triazol-1-yl)-3-methylbutanoyl)-4-hydroxy-N-(((S)-1-(4-(4-methylthiazol-5-yl)phenyl)ethyl)pyrrolidine-2-carboxamide], in test [1], the DC50 came to 0.018 µM. Further, the Dmax in test [2] amounted to 95%. Further, the IC50 in test [4] is 34 nM.

Consider `CCc1c(F)ccc2cc(O)cc(-c3ncc4c(N5CCC[C@@](C)(O)C5)nc(OCC5(CN6CCN(Cc7cn([C@H](C(=O)N8C[C@H](O)C[C@H]8C(=O)N[C@@H](C)c8ccc(-c9scnc9C)cc8)C(C)C)nn7)CC6)CC5)nc4c3F)c12` [Compound 132], for which, in test [1], the DC50 stood at 0.019 µM. Besides, in test [2], the Dmax came out at 95%. In test [4], the IC50 is 25 nM.

In the case of `CCc1c(F)ccc2cc(O)cc(-c3ncc4c(N5CCC[C@@](C)(O)C5)nc(OCC5(CN6CCC(N7CCC(c8cn([C@H](C(=O)N9C[C@H](O)C[C@H]9C(=O)N[C@@H](C)c9ccc(-c%10scnc%10C)cc9)C(C)C)nn8)CC7)CC6)CC5)nc4c3F)c12` [Compound 137], in test [1], the DC50 amounted to 0.037 µM. In test [2], this compound registered a Dmax of 95%. For the same compound, the IC50 in test [4] was found to be 37 nM.

As to `CCc1c(F)ccc2cc(O)cc(-c3ncc4c(N5CCC[C@@](C)(O)C5)nc(OCC5(CN6CCN(CC78CC(c9cn([C@H](C(=O)N%10C[C@H](O)C[C@H]%10C(=O)N[C@@H](C)c%10ccc(-c%11scnc%11C)cc%10)C(C)C)nn9)(C7)C8)CC6)CC5)nc4c3F)c12` [Compound 148], in test [1], the DC50 was 0.013 µM. In test [2], this compound gave a Dmax of 95%. In addition, the IC50 in test [4] was 15 nM.

In test [1], `CCc1c(F)ccc2cc(O)cc(-c3ncc4c(N5CCC[C@@](C)(O)C5)nc(OCC5(CN6CCC7(CC6)CC(Oc6cc([C@H](C(=O)N8C[C@H](O)C[C@H]8C(=O)N[C@@H](C)c8ccc(-c9scnc9C)cc8)C(C)C)on6)C7)CC5)nc4c3F)c12` [Compound 150] had a DC50 of 0.014 µM. This compound also came in with a Dmax in test [2] of 95%. The IC50 in test [4] worked out at 11 nM.

Regarding `CCc1c(F)ccc2cc(O)cc(-c3ncc4c(N5CCC[C@@](C)(O)C5)nc(OCC5(CN6CCC(Nc7ccc(-c8cn([C@H](C(=O)N9C[C@H](O)C[C@H]9C(=O)N[C@@H](C)c9ccc(-c%10scnc%10C)cc9)C(C)C)nn8)cn7)CC6)CC5)nc4c3F)c12` [Compound 152], the DC50 in test [1] amounted to 0.027 µM. Also, the Dmax in test [2] amounted to 95%. For the same compound, in test [4], the IC50 was determined as 30 nM.

The compound `CCc1c(F)ccc2cc(O)cc(-c3ncc4c(N5CCC[C@@](C)(O)C5)nc(OCC5(CN6CCC(N(C)c7ccc(-c8cn([C@H](C(=O)N9C[C@H](O)C[C@H]9C(=O)N[C@@H](C)c9ccc(-c%10scnc%10C)cc9)C(C)C)nn8)cn7)CC6)CC5)nc4c3F)c12` [Compound 154] registered a DC50 in test [1] of 0.0055 µM. The same compound yielded a Dmax in test [2] of 95%. Moreover, the IC50 in test [4] amounted to 13 nM.

Regarding `CCc1c(F)ccc2cc(O)cc(-c3ncc4c(N5CCC[C@@](C)(O)C5)nc(OCC5(CN6CCC7(CC6)CCN(c6cc([C@H](C(=O)N8C[C@H](O)C[C@H]8C(=O)N[C@@H](C)c8ccc(-c9scnc9C)cc8)C(C)C)on6)CC7)CC5)nc4c3F)c12` [Compound 155, (2S,4R)-1-((R)-2-(3-(9-((1-((7-(8-ethyl-7-fluoro-3-hydroxynaphthalen-1-yl)-8-fluoro-4-((R)-3-hydroxy-3-methylpiperidin-1-yl)pyrido[4,3-d]pyrimidin-2-yl)oxy)methyl)cyclopropyl)methyl)-3,9-diazaspiro[5.5]nonan-3-yl)isoxazol-5-yl)-3-methylbutanoyl)-4-hydroxy-N-((S)-1-(4-(4-(4-methylthiazol-5-yl)phenyl)ethyl)pyrrolidine-2-carboxamide], in test [1], the DC50 is 0.0087 µM. Also, in test [2], the Dmax came to 95%. Also, the IC50 in test [4] was found to be 23 nM.

Compound `CCc1c(F)ccc2cc(O)cc(-c3ncc4c(N5CCC[C@@](C)(O)C5)nc(OCC5(CN6CCN(C7CN(c8cc([C@H](C(=O)N9C[C@H](O)C[C@H]9C(=O)N[C@@H](C)c9ccc(-c%10scnc%10C)cc9)C(C)C)on8)C7)CC6)CC5)nc4c3F)c12` [Compound 156] had a DC50 in test [1] of 0.0096 µM. Also, the Dmax in test [2] is 95%. Besides, the IC50 in test [4] worked out at 9.6 nM.

For the compound `CCc1c(F)ccc2cc(O)cc(-c3ncc4c(N5CCC[C@@](C)(O)C5)nc(OC[C@]56CCCN5[C@@H](COc5ccc(-c7cn([C@H](C(=O)N8C[C@H](O)C[C@H]8C(=O)N[C@@H](C)c8ccc(-c9scnc9C)cc8)C(C)C)nn7)cn5)CC6)nc4c3F)c12` [Compound 157], the DC50 in test [1] came to 0.0077 µM. This compound also showed a Dmax in test [2] of 95%. Moreover, the IC50 in test [4] is 19 nM.

As for `CCc1c(F)ccc2cc(O)cc(-c3ncc4c(N5CCC[C@@](C)(O)C5)nc(OC[C@]56CCCN5[C@@H](COc5ncc(-c7cn([C@H](C(=O)N8C[C@H](O)C[C@H]8C(=O)N[C@@H](C)c8ccc(-c9scnc9C)cc8)C(C)C)nn7)cn5)CC6)nc4c3F)c12` [Compound 158, (2S,4R)-1-((S)-2-(4-(2-(((3R,7aR)-7a-(((7-(8-ethyl-7-fluoro-3-hydroxynaphthalen-1-yl)-8-fluoro-4-((R)-3-hydroxy-3-methylpiperidin-1-yl)pyrido[4,3-d]pyrimidin-2-yl)oxy)methyl)cyclopropyl)hexahydro-1H-pyrrolizin-3-yl)methoxy)pyrimidin-5-yl)-1H-1,2,3-triazol-1-yl)-3-methylbutanoyl)-4-hydroxy-N-(((S)-1-(4-(4-methylthiazol-5-yl)phenyl)ethyl)pyrrolidine-2-carboxamide], the DC50 in test [1] stood at 0.0041 µM. For the same compound, in test [2], the Dmax is 95%. In addition, the IC50 in test [4] turned out to be 18 nM.

For `CCc1c(F)ccc2cc(O)cc(-c3ncc4c(N5CCC[C@@](C)(O)C5)nc(OC[C@]56CCCN5[C@@H](COc5cnc(-c7cn([C@H](C(=O)N8C[C@H](O)C[C@H]8C(=O)N[C@@H](C)c8ccc(-c9scnc9C)cc8)C(C)C)nn7)cn5)CC6)nc4c3F)c12` [Compound 159], the DC50 in test [1] was determined as 0.0023 µM. The same compound yielded a Dmax in test [2] of 95%. Also, in test [4], the IC50 is 6.2 nM.

These data come from patent publication EP4631940A1, “COMPOUND TARGETING PAN-KRAS PROTEIN DEGRADATION AGENT AND USE THEREOF” (Betta Pharmaceuticals Co., Ltd., priority 2022, dated 2024).
